Laboratory results published in patent US5399340A, “Use of amide complex compounds” (Schering Aktiengesellschaft, priority 1989, dated 1995).

Legend:
T1 relaxation in water = assay type: physicochemical
T1 relaxation in plasma = assay type: physicochemical
[1] = cited from earlier work

Compound | T1 relaxation (T1 relaxation in water) | T1 relaxation (T1 relaxation in plasma) | distribution ([1]; intravenous injection) | passage of intact cell membranes and extrarenal excretion ([1]; intravenous injection) | route of excretion ([1]; intravenous injection) | rate of excretion in renal insufficiency ([1]; patients with limited kidney function)
C[NH2+]C[C@H](O)[C@@H](O)[C@H](O)[C@H](O)CO.O=C([O-])CN(CCN(CC(=O)[O-])CC(=O)[O-])CCN(CC(=O)[O-])CC(=O)Nc1ccccc1.[Gd+3] [Example 2, N-Methylglucamine Salt of the Gadolinium Complex of 3,6,9-Tris(carboxymethyl)-3,6,9-triazaundecanedioic Acid Phenyl Monoamide] | 3.79 ± 0.16 mmol⁻¹ s⁻¹ | 5.45 ± 0.68 mmol⁻¹ s⁻¹ |  |  |  | 
CNC[C@H](O)[C@@H](O)[C@H](O)[C@H](O)CO.CNC[C@H](O)[C@@H](O)[C@H](O)[C@H](O)CO.O=C([O-])CN(CCN(CC(=O)[O-])CC(=O)O)CCN(CC(=O)[O-])CC(=O)O.[Gd+3] [MAGNEVIST] |  |  | extra-cellular | practically not at all observed | excreted via the kidneys by glomerular secretion | excreted only very slowly
